Experiments:
blood glucose = assay: effect of oral insulin on blood glucose in somatostatin infused dogs (Example 9); assay type: in vivo, beagle dogs; conditions: somatostatin infusion 1 μg/kg/min; FIG. 8B
Source text: Water was supplied ad libitum.

[1] = dog, in vivo
Description: The absorption of oral insulin was evaluated in beagles under somatostatin infusion at 1 μg/kg/min via an indwelling vein catheter.
Twelve beagle dogs with body weights between 8-12 kg were housed in an animal facility. The dogs were randomly divided into three groups and fasted overnight. Water was supplied ad libitum. Somatostatin infusion (1 μg/kg/min) was performed using a balloon infusion pump via an indwelling vein catheter, and tablets were fed with 10 ml water at 4 hr after initiation of somatostatin infusion. Food was restricted during the study, and blood samples were collected at various time points in heparinized tubes.
Blood glucose concentration was measured with a glucometer and matching testing strips (Johnson & Johnson, OneTouch®), and serum samples of 0.5-0.6 ml were recovered after blood samples were collected and centrifuged at 3000 rpm for 10 min. The samples were frozen at −20° C., and insulin concentration was measured by ELISA (Linco).

[2] = colon suppository containing 25 mg sodium caprate; cited from earlier work
[3] = estimated; cited from earlier work

Molecule: insulin [Insulin injection]
- effect on blood glucose (blood glucose): rapid and profound reduction of glucose levels
- effect on serum insulin concentration [1]: large increase in insulin concentration

Molecule: CC1(C)S[C@@H]2[C@H](NC(=O)[C@H](N)c3ccccc3)C(=O)N2[C@H]1C(=O)O [ampicillin]
- increase of area under the serum concentration-time curve (AUC) compared to ampicillin alone [2]: 2.3 fold
- increase of maximum serum concentration (Cmax) compared to ampicillin alone [2]: 2.6 fold

Molecule: CCCCCCCCCC(=O)[O-].[Na+] [sodium caprate]
- concentration needed to achieve a permeation enhancing effect [3]: 10 to 13 mM
